Data as given in patent US20060223837A1 (priority 2005, published 2006).

Target: T1, human VR1 (Homo sapiens, UniProt Q8NER1)
T1 construct: expressed in transfected cells; host or cells: HEK293
Test: Human VR1 functional assay (FLIPR intracellular Ca2+)
Format: cell-based
Settings: for IC50: antagonism of capsaicin-induced Ca2+ increase, read-out: h IC50; for inhibition at 5 µM: read-out: h % I (5 μM); for inhibition at 1 µM: read-out: h % I (1 μM)
Experimental: The functional activity of the test compounds was determined by measuring changes in intracellular calcium concentration using a Ca^2+-sensitive fluorescent dye and FLIPR™ technology. Increases in Ca^2+ concentration were readily detected upon challenge with capsaicin. HEK293 Cells expressing human VR1 were grown on poly-D-lysine coated 384 well black-walled plates (BD 354663) and 1 day later loaded with Calcium 3 Dye for 35 min at 37 C, 5% CO2 and then for 25 min at room temperature, and subsequently tested for agonist-induced increases in intracellular Ca^2+ levels using FLIPR™ technology. Cells were challenged with test compounds (at varying concentrations, which are indicated in parentheses in the heading of the table below) and intracellular Ca^2+ was measured for 5 min prior to the addition of capsaicin to all wells to achieve a final concentration of eliciting an approximate 80% maximal response ([…]). EC50 or IC50 values were determined from dose-response studies. Curves were generated using the average of quadruplicate wells for each data point.

[1] = inhibition of capsaicin response

T1 sequence (Q8NER1 whole entry): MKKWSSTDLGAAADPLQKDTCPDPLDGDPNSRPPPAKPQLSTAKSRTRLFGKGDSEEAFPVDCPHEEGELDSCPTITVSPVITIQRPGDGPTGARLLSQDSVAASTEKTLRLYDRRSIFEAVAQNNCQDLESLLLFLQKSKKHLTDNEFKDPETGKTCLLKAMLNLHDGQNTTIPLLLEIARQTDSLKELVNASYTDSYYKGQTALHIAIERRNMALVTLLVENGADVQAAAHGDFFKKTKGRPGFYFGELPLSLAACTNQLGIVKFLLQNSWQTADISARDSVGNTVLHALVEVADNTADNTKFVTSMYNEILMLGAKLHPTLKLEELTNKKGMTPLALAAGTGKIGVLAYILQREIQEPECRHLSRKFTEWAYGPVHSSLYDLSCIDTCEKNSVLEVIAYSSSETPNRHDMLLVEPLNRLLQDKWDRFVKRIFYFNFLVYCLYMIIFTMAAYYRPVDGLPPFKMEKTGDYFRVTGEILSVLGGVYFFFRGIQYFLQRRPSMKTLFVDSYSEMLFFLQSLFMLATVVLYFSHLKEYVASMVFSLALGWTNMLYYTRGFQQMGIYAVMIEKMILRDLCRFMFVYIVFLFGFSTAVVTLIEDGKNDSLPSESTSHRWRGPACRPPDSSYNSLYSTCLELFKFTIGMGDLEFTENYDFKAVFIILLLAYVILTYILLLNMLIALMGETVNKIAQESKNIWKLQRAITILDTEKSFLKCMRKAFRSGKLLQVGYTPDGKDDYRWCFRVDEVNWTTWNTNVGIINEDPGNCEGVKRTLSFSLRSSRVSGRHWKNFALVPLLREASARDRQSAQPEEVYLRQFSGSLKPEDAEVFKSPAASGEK

| Compound | IC50 [nM] | inhibition at 5 µM [1] [%] | further results |
| --- | --- | --- | --- |
| Cc1cc(NC(=O)CCc2ccc(SC(F)(F)F)cc2)cnc1-n1cnc(Cl)c1Cl | – | – | h % I (1 μM) [1]: 41% |
| CC(C)(C)c1ccc(CCC(=O)Nc2ccccc2-c2ccccc2O)cc1 [Cpd 8] | – | – | h % I (10 μM) (inhibition of capsaicin response, 10 μM): 45% |
| Cc1cc(NC(=O)CCc2ccc(C(C)(C)C)cc2)cc(C)c1-c1cccc(O)c1 [Cpd 86, 3-(4-tert-butyl-phenyl)-N-(3′-hydroxy-2,6-dimethyl-biphenyl-4-yl)-propionamide] | 109 | 97 | – |
| Cc1cc(NC(=O)CCc2ccc(C(C)(C)C)cc2)cc(C)c1-c1ccc(O)cc1 [Cpd 87] | 857 | 92 | – |
| Cc1cc(NC(=O)CCc2ccc(C(C)(C)C)cc2)cc(C)c1-c1ccc(CO)cc1 [Cpd 88] | 1710 | 84 | – |
| CC(C)(C)c1ccc(CCC(=O)Nc2cc(F)c(-c3cccc(O)c3)c(F)c2)cc1 [Cpd 89] | – | – | h % I (5 μM) [1]: 65% |
| CC(C)(C)c1ccc(CCC(=O)Nc2cc(F)c(-c3ccc(O)cc3)c(F)c2)cc1 [Cpd 90] | – | – | % Response Relative to EC80 of Capsaicin (6 μM) (agonist response, 6 μM): 17% |
| CC(C)(C)c1ccc(CCC(=O)Nc2cc(F)c(-c3ccc(CO)cc3)c(F)c2)cc1 [Cpd 91] | – | – | % Response Relative to EC80 of Capsaicin (6 μM) (agonist response, 6 μM): 22% |
| CC(C)(C)c1ccc(CCC(=O)Nc2ccc(-c3cccc(CO)c3)c(CO)c2)cc1 [Cpd 95] | – | – | Emax at 6 µM (agonist response, 6 μM, read-out: % Response Relative to EC80 of Capsaicin (6 μM)): 127%; EC50 (agonist-induced Ca2+ increase, read-out: h EC50): 248 nM; inhibition at 1 µM [1]: 40% |
| Cc1cc(NC(=O)CCc2ccc(C(C)(C)C)cc2)cnc1-c1cccc(O)c1 [Cpd 161, 3-(4-tert-butyl-phenyl)-N-[6-(3-hydroxy-phenyl)-5-methyl-pyridin-3-yl]-propionamide] | 36 | 94 | – |
| Cc1cc(NC(=O)CCc2ccc(C(C)(C)C)cc2)cnc1-c1ccc(O)cc1 [Cpd 162, 3-(4-tert-butyl-phenyl)-N-[6-(4-hydroxy-phenyl)-5-methyl-pyridin-3-yl]-propionamide] | 126 | 99 | – |
| Cc1cc(NC(=O)CCc2ccc(C(C)(C)C)cc2)cnc1-c1ccc(CO)cc1 [Cpd 163, 3-(4-tert-butyl-phenyl)-N-[6-(4-hydroxymethyl-phenyl)-5-methyl-pyridin-3-yl]-propionamide] | 97 | 100 | – |
| Cc1cc(NC(=O)CCc2ccc(C(C)(C)C)cc2)cnc1-c1cccnc1 [Cpd 164, 3-(4-tert-butyl-phenyl)-N-(3-methyl-[2,3′]bipyridinyl-5-yl)-propionamide] | 193 | 99 | – |
| Cc1cc(NC(=O)CCc2ccc(C(C)(C)C)cc2)cnc1-c1ccncc1 [Cpd 165, 3-(4-tert-butyl-phenyl)-N-(3-methyl-[2,4′]bipyridinyl-5-yl)-propionamide] | 73 | 99 | – |
| Cc1cc(NC(=O)CCc2ccc(C(C)(C)C)cc2)cc(C)c1-c1cccnc1 [Cpd 166] | 2860 | 76 | – |
| Cc1cc(NC(=O)CCc2ccc(C(C)(C)C)cc2)cc(C)c1-c1ccncc1 [Cpd 167, 3-(4-tert-butyl-phenyl)-N-(3,5-dimethyl-4-pyridin-4-yl-phenyl)-propionamide] | 183 | 93 | – |
| CC(C)(C)c1ccc(CCC(=O)Nc2cc(F)c(-c3cccnc3)c(F)c2)cc1 [Cpd 168] | 1560 | 95 | – |
| CC(C)(C)c1ccc(CCC(=O)Nc2ccc(-c3cccnc3)c(CO)c2)cc1 [Cpd 170] | – | – | % Response Relative to EC80 of Capsaicin (6 μM) (agonist response, 6 μM): 101%; h % I (1 μM) [1]: 37% |
| Cc1cc(NC(=O)CCc2ccc(C(C)(C)C)cc2)ccc1-c1ccccn1 [Cpd 172] | 142 | – | – |
| CC(C)(C)c1ccc(CCC(=O)Nc2ccc(-c3ccccn3)c(F)c2)cc1 [Cpd 173] | 388 | – | – |
| Cc1cc(NC(=O)CCc2ccc(C(C)(C)C)cc2)cc(C)c1-c1ccccn1 [Cpd 174] | 2890 | – | – |
| Cc1cc(NC(=O)CCc2ccc(C(C)(C)C)cc2)cnc1-c1ccccn1 [Cpd 177] | 295 | – | – |

| Compound | IC50 [nM] | inhibition at 5 µM [1] [%] | further results |
| --- | --- | --- | --- |
| CC(C)(C)c1ccc(CCC(=O)Nc2ccc(-c3cccnc3)c(F)c2)cc1 [Cpd 181] | 400 | – | – |
| CC(C)(C)c1ccc(CCC(=O)Nc2cnc(-c3ccccc3O)cn2)cc1 [Cpd 183] | – | – | h % I (1 μM) [1]: 1%; h % I (5 μM) [1]: 9% |
| CC(C)(C)c1ccc(CCC(=O)Nc2cnc(-c3cccc(O)c3)cn2)cc1 [Cpd 184] | – | – | h % I (1 μM) [1]: 1%; h % I (5 μM) [1]: 14% |
| CC(C)(C)c1ccc(CCC(=O)Nc2cnc(-c3ccc(O)cc3)cn2)cc1 [Cpd 185] | – | – | h % I (1 μM) [1]: 1%; h % I (5 μM) [1]: 24% |
| CC(C)(C)c1ccc(CCC(=O)Nc2cnc(-c3ccc(CO)cc3)cn2)cc1 [Cpd 186] | – | – | h % I (1 μM) [1]: 6%; h % I (5 μM) [1]: 39% |
| CC(C)(C)c1ccc(CCC(=O)Nc2cnc(-c3cccnc3)cn2)cc1 [Cpd 187] | – | – | h % I (1 μM) [1]: 11%; h % I (5 μM) [1]: 15% |
| CC(C)(C)c1ccc(CCC(=O)Nc2cnc(-c3ccncc3)cn2)cc1 [Cpd 188] | – | – | h % I (1 μM) [1]: 4%; h % I (5 μM) [1]: 33% |
| Cc1cn(-c2ccc(NC(=O)CCc3ccc(S(=O)(=O)C(F)(F)F)cc3)cc2C(F)(F)F)cn1 [Cpd 209] | 48 | – | inhibition at 1 µM [1]: 100% |
| O=C(CCc1ccc(C(F)(F)F)cc1)Nc1cnc(-c2ccccc2O)c(C(F)(F)F)c1 [Cpd 213] | 64.5 | 100 | – |
| Cc1cn(-c2ccc(NC(=O)CCc3ccc(SC(F)(F)F)cc3)cc2C(F)(F)F)cn1 [Cpd 219] | 100 | – | inhibition at 1 µM [1]: 100% |
| Cc1cn(-c2ccc(NC(=O)CCc3ccc([S+]([O-])C(F)(F)F)cc3)cc2C(F)(F)F)cn1 (stereo not drawn) [Cpd 222] | 137 | – | inhibition at 1 µM [1]: 100% |
| O=C(/C=C/c1ccc(C(F)(F)F)cn1)Nc1ccc(-n2cnc(Cl)c2Cl)c(C(F)(F)F)c1 [Cpd 235, trans-N-[4-(4,5-Dichloro-imidazol-1-yl)-3-trifluoromethyl-phenyl]-3-(5-trifluoromethyl-pyridin-2-yl)-acrylamide] | 294 | – | inhibition at 1 µM [1]: 99% |
| O=C(CCc1ccc(C(F)(F)F)cc1)Nc1ccc(-n2cnc(C(F)(F)F)c2)c(C(F)(F)F)c1 [Cpd 238, 3-(4-Trifluoromethyl-phenyl)-N-[3-trifluoromethyl-4-(4-trifluoromethyl-imidazol-1-yl)-phenyl]-propionamide] | 340 | – | inhibition at 1 µM [1]: 100% |
| O=C(CCc1ccc(SC(F)(F)F)cc1)Nc1ccc(-n2cnc(Cl)c2Cl)c(C(F)(F)F)c1 [Cpd 239] | 358 | – | inhibition at 1 µM [1]: 88% |
| O=C(CCc1ccc(F)cc1)Nc1ccc(-n2cnc(Cl)c2Cl)c(C(F)(F)F)c1 [Cpd 243] | 440 | – | inhibition at 1 µM [1]: 92% |
| O=C(CCc1ccc([S+]([O-])C(F)(F)F)cc1)Nc1ccc(-n2cnc(Cl)c2Cl)c(C(F)(F)F)c1 (stereo not drawn) [Cpd 244] | 452 | – | inhibition at 1 µM [1]: 85% |
| Cc1cc(NC(=O)CCc2ccc(C(F)(F)F)cc2)cnc1-n1ccnc1 [Cpd 247] | 549 | 97 | – |
| O=C(CCc1ccc(C(F)(F)F)cn1)Nc1ccc(-n2cnc(Cl)c2Cl)c(C(F)(F)F)c1 [Cpd 248] | 602 | – | inhibition at 1 µM [1]: 83% |
| O=C(CCc1ccc(C(F)(F)F)cc1)Nc1cnc(-c2cccnc2)c(C(F)(F)F)c1 [Cpd 249] | 613 | 100 | – |
| O=C(CCc1ccc(F)c(F)c1)Nc1ccc(-n2ccnc2)c(C(F)(F)F)c1 [Cpd 256] | – | – | inhibition at 1 µM [1]: 42% |
| Cc1cc(NC(=O)CCc2ccc(F)c(F)c2)cnc1-n1cnc(Cl)c1Cl [Cpd 257] | – | – | inhibition at 1 µM [1]: 41% |
